Patent publication US4533675A (priority 1984, dated 1985)
Like-named read-outs stand apart in the source and are kept apart here.

Columns and labels:
[1] = ip injection, data from Brossi et al., J. Med. Chem., 26:1365 (1983); cited from earlier work
[2] = LD50 in mice after ip injection; assay type: in vivo
[3] = system: tubulin protein; assay: Tubulin binding in vitro

COc1cc2c(c(OC)c1OC)-c1ccc(OC)c(=O)cc1[C@@H](NC(C)=O)CC2 [Colchicine, colchicine]
LD50 in Mice after ip inj [1]: 3.0 mg/kg

CCOC(=O)N[C@H]1CCc2cc(OC)c(OC)c(OC)c2-c2ccc(SC)c(=O)cc21 [Et H SMe]
LD50 in Mice after ip inj [2]: 77.1 mg/kg
Tubulin Binding in vitro [3]: 96

COc1cc2c(c(OC)c1OC)-c1ccc(SC)c(=O)cc1[C@@H](NC(=O)Oc1ccccc1)CC2 [Ph H SMe, N-Phenoxycarbonyl-deacetylthiocolchicine]
LD50 ([2]; mouse, in vivo, read-out: LD50 in Mice after ip inj): 50 mg/kg
